From patent publication US20220267390A1, “MPS MODIFIED PEPTIDES AND USE THEREOF” (The Regents of the University of California, priority 2019, published 2022)
Where a SMILES comes first, the peptide text is derived from it. [ ]: non-standard residue; d: D form.

Key:
[1] = tested on: bleomycin-induced pulmonary fibrosis; experiment: Bleomycin-induced pulmonary fibrosis; type: in vivo, C57BL/6J mice; settings: 7 mg/kg i.p. every two days, against nintedanib (28 mg/kg) and MPS peptide (28 mg/kg)
Method: FIGS. 20A and 20B show suppressive effects of MPS peptide on pulmonary fibrosis in vivo. C57BL/6 mice were intraperitoneally given either PBS, nintedanib (28 mg/kg), MPS peptide (28 mg/kg) or MPS-12042 (7 mg/kg) at the dosage of every two days after 9 days of intratracheal exposure with one shot of saline or bleomycin (33 μg in […] of saline, n=5). (FIG. 20A) Representative Masson trichrome and immunohistochemical staining of phospho-MARCKS (Ser159/163) and phospho-AKT (Ser473) (n=6). (FIG. 20B) Hydroxyproline level in the left lung of mice as described above was determined by a hydroxyproline ELISA assay (mean±SD, *p<0.05).
MPS peptide potentially serves as an antifibrotic agent in bleomycin-induced pulmonary fibrosis. Bleomycin remains the standard agent for induction of experimental pulmonary fibrosis in animals^23. Thus, 8-week-old female C57BL/6J mice received saline or bleomycin intratracheally (33 μg in […] of saline) as previously described^23. Lung specimens from bleomycin- or saline-treated mice were collected and subjected to immunofluorescence staining. […] Next, lung fibroblast cells isolated from saline- or bleomycin-treated mice (two mice fibroblast cell lines were gifts from Dr. Sem H. Phan, University of Michigan School of Medicine, MI) were incubated with either 100 μM control or MPS peptide for 48 hours. […]

IPF fibroblast cells = experiment: cells; type: cell-based, human
Method: (§1) FIG. 14: Comparison of MPS-12042 (SEQ ID NO: 45) versus know tyrosine kinase inhibitor (TKLs) on the treatment of IPF fibroblast cells. Both normal and IPF lung fibroblast cells were treated with various drugs. After 72 hours, cells were subjected to MTT assays and IC50 for each drug was determined.
Human primary fibroblast cells were obtained from airway tissues provided from the UC Davis Medical Hospital (Sacramento, Calif.) with consent. The protocol for human tissue procurement and usage were periodically reviewed and approved by the University Human Subject Research Review Committee. Primary fibroblast cell lines, IPF-1 and IPF-2 cells, were established from IPF patients. Cells were obtained from lung biopsies and the diagnosis of IPF was supported by patient history, physical examination, pulmonary function tests, and typical high-resolution chest computed tomography findings of IPF. […] All patients fulfilled the criteria for the diagnosis of IPF as established by the American Thoracic Society and European Respiratory Society. Non-fibrotic primary control adult human lung fibroblast lines, Normal-1 and Normal-2 cells were used. These lines were established from normal lung tissue or histologically normal lung tissue adjacent to carcinoid tumor. The IPF cell line, LL97A, was purchased from the American Type Culture Collection (ATCC) (Manassas, Va.). Lung fibroblast lines were cultured in high-glucose DMEM or RPMI-1640 medium with 10% fetal bovine serum and 1% penicillin-streptomycin at 37° C. in a humidified atmosphere of 5% CO2. Fibroblasts were used between passages 4 and 8. Cells were characterized as fibroblasts as described^26.
Cells were seeded onto 96-well plates at a density of 5-10×10^3 cells per well and cultured for the indicated treatment. Cell proliferation was evaluated using a MTS assay kit (Promega, Madison, Wis.). Twenty microliters of the combined MTS/PMS solution was added into each well, incubated for 3 hours at 37° C., and the absorbance was measured at 490 nm by using an ELISA reader. For Trypan blue test, cells were plated on 12-well plates and treated with the indicated chemotherapeutic agents. After 72 hours, both attached and detached cells were collected and then stained with 0.2% trypan blue (0.1% final concentration), and the number of trypan blue-positive and -negative cells was counted using a haemocytometer under low-power microscopy. For colony-forming assays, 200 cells were seeded in each well of six-well plates. IPF-1 or IPF-2 primary cells were treated with peptides at the indicated concentrations for 10 days. Colonies were stained using 0.001% crystal violet and the number of colonies with a diameter greater than 0.5 mm was counted under an inverted microscope.

H1650 cells = type: cell-based
Method: IC50 (half maximal inhibitory concentration; μM) values in lung cancer cells. […] The residues marked in red/bold are D-isoforms of amino acids (SEQ ID NOS: 57, 48-54, 40-42 45 and 47 in order of appearance).
Molecular basis of MPS peptide and its potential for increasing nintedanib efficacy. […] A kinetic assay confirmed that this peptide binds PIP2 with a dissociation constant of 17.64 nM (FIG. 10B). As expected, a decrease of PIP3 pools in whole cell lysates of MPS-treated IPF fibroblasts was observed (FIG. 10C), supporting the notion that MPS peptide is able to inhibit AKT activation through trapping PIP2. In view of adverse effects of the current IPF therapeutic nintedanib^9, 10, there is an urgent clinical need to improve the efficacy of such treatment in IPF. Since the TGF-β receptor is not a direct target of nintedanib, targeting an element of TGF-β signaling in tandem with nintedanib administration circumvents the shortcomings of nintedanib monotherapy. […] Based on the above observations, it is assumed that TGF-β-directed phospho-MARCKS is a bypass mechanism of activating PI3K/AKT signaling (FIG. 11B); therefore, it seems reasonable that MARCKS inhibition by MPS treatment may improve nintedanib efficacy, permitting lower doses of nintedanib to be used. To this end, the possibility of a synergistic interaction between MPS and nintedanib in order to circumvent the shortcomings of nintedanib monotherapy was tested. […] Furthermore, the Chou and Talalay CI (combination index) method^25 was used to evaluate the therapeutic interactions between nintedanib and MPS peptide. […] Particularly, the values were lower than 1 at ED50, approximately 1 at ED75, and above 1 at ED90 (data not shown). Thus, the combination effect was dose-dependently correlated with the components, and therefore low dose nintedanib in combination with low dose of MPS presents a synergistic effect on cell proliferation. […] On the basis of the sequences of MPS peptide, the rearrangement of PIP2-binding sites in this peptide were designed and synthesized with the intention of enhancing the efficacy and stability of the MPS peptide. FIG. 13 lists the sequences of various MPS derivatives. In light of the cleavage sites of various proteases and PIP2 binding motifs, Applicant replaced some L-isoform amino acids with D-isoform and these peptides were named as MPS-12042 and MPS-22026. To further validate the efficacy of the above MPS derivatives, Applicant performed a dose-course analysis of H1650 cells undergoing each MPS derivative treatment.

normal fibroblasts = experiment: Normal lung fibroblast proliferation (MTS/MTT assay); type: cell-based, human; settings: 1 μM
Method: as §1
Human primary fibroblast cells were obtained from airway tissues provided from the UC Davis Medical Hospital (Sacramento, Calif.) with consent. The protocol for human tissue procurement and usage were periodically reviewed and approved by the University Human Subject Research Review Committee. Primary fibroblast cell lines, IPF-1 and IPF-2 cells, were established from IPF patients. […]
Cells were seeded onto 96-well plates at a density of 5-10×10^3 cells per well and cultured for the indicated treatment. Cell proliferation was evaluated using a MTS assay kit (Promega, Madison, Wis.). Twenty microliters of the combined MTS/PMS solution was added into each well, incubated for 3 hours at 37° C., and the absorbance was measured at 490 nm by using an ELISA reader. […] After 72 hours, both attached and detached cells were collected and then stained with 0.2% trypan blue (0.1% final concentration), and the number of trypan blue-positive and -negative cells was counted using a haemocytometer under low-power microscopy. […]

IC50 (H1650 cells): 6 µM
SMILES: CC(C)C[C@@H](NC(=O)[C@@H](CCCCN)NC(=O)[C@@H](Cc1ccccc1)NC(=O)[C@H](C)NC(=O)[C@H](CCCCN)NC(=O)[C@@H](CCCCN)NC(=O)[C@@H](Cc1ccccc1)NC(=O)[C@H](C)NC(=O)[C@@H](Cc1ccccc1)NC(=O)[C@@H](CCCNC(=N)N)NC(=O)[C@H](CCCCN)NC(=O)[C@H](CCCCN)NC(=O)[C@H](CCCCN)NC(=O)[C@H](CCCCN)NC(=O)[C@@H](N)CCCCN)C(=O)N[C@@H](C)C(=O)NCC(=O)N[C@H](Cc1ccccc1)C(=O)N[C@H](C)C(=O)N[C@H](Cc1ccccc1)C(=O)N[C@H](CCCCN)C(=O)N[C@@H](CCCCN)C(=O)N[C@@H](CC(N)=O)C(=O)N[C@H](CCCCN)C(=O)N[C@@H](CCCCN)C(=O)O [MPS-12042] (H-KKKKK[dR][dF]A[dF][dK]KA[dF][dK][dL]AG[dF][dA][dF][dK]KN[dK]K-OH; N-terminus and C-terminus assumed)
attenuating phospho-MARCKS and phospho-AKT, reducing overall fibrosis and extracellular matrix deposition in mouse lungs [1]: superior efficacy | decreased cell proliferation (IPF fibroblast cells; 1 μM, IPF fibroblast): 50% | IC50 (IPF fibroblast cells; 72 h): 1000 to 1500 nM | decreased cell proliferation (normal fibroblasts): not in normal fibroblasts
